Reference: patent US20070248680A1, “Particles for Inactivating Toxins” (Board of Regents, The University of Texas System, priority 2005, published 2007)
Entries after “also recorded” stand apart in the source; their conditions may differ.

Legend:
[1] = test system: collagen antibody; assay: Removal of collagen antibodies from circulation of collagen-immunized mice; assay type: in vivo, Balb/C mice; conditions: week 7, one week after intravenous injection of about 2.0 mg particles/0.5 mL; about 100 nanometer NIPA
Experimental: In still another example, Balb/C mice were immunized with bovine skin collagen following a standard immunization procedure as is known to one of ordinary skill in the art. At one week following immunization, mice began to produce antibodies against collagen. At the end of week 6 as depicted by the arrow in FIGS. 9A and 9B, mice were injected intravenously (via the tail vein) with particles tagged with and without bovine Type I collagen. Intravenous doses were about 2.0 mg particles/0.5 mL. FIGS. 9A and 9B are representative examples showing the in vivo efficacy of specifically tagged particles and their ability to remove a particular unwanted antibodies from circulation after allowing the unwanted antibody concentration to accumulate for six weeks. […] Histologic analyses of tissue samples collected from some representative animals, including samples from the kidneys, lung, liver, brain, intestines, heart and spleen, were examined for particles. […] These animals were also able to degrade the particle preparation (predominantly in the liver) and eliminate by-products of the preparation via hydrolysis (data not shown).
In FIG. 9B, the conditions as described for FIG. 9A were repeated using particle preparations tagged comprising HPC particles of 1-5 micrometers (typical diameter) conjugated with collagen (HPC-collagen) or untagged particles (HPC) injected into mice.

[2] = test system: BSA antibody; assay: Removal of free BSA antibody from serum of BSA-immunized mice (ELISA); assay type: in vivo, Balb/C mice; conditions: for time to removal of circulating BSA antibodies from serum / effect on free and circulating BSA antibody in serum: tail vein injection; for time to removal of circulating BSA antibodies from serum: FIG. 8B; for effect on free and circulating BSA antibody in serum: NIPA about 5 micrometers, PLLA about 10 micrometers, HA about 250 nanometers
Source text: Another feature of the present invention is that selective tagging of particles of the present invention provides for the removal of select and specific unwanted products or toxins (e.g., unwanted proteins or antibodies) from a host. […] Following injection, mice (at least five mice per group) were sacrificed beginning on day one and continued to day 21. Serum samples from each mouse were recovered via retro-orbital blood collection. Sera was then used to measure the amount of free BSA antibody in the blood by standard enzyme-linked immuno-sorbent assay. FIGS. 8A and 8B are representative examples of the efficacy of specifically tagged particles, in which tagged particles are capable of removing a specific antibody present in serum.

[3] = Persistence of FITC-BSA tagged particles in blood after intravenous introduction (fluorometry); assay type: in vivo; conditions: Balb/C mice, about 5.0 micrometer particles
Experimental: One feature of the present invention is that a particle preparation of the present invention is capable of remaining in the host for a length of time, longer than proteins, antibodies, vaccines, or antimicrobials are known to last in a mammalian host. […] Particle were tagged by conjugating with FITC-labeled bovine serum albumin (BSA) protein. […] The amount of BSA present in each sample was assessed by fluorometry. The tagged particles in FIG. 5A were FITC-BSA conjugated to NIPA particles of about 5.0 micrometers (typical diameter). […] In addition, greater than 20% of the BSA-NIPA particles were still present in the blood after two weeks.

[4] = test system: BSA antibodies; assay: Protein adsorption from BSA antisera onto particles, SDS-PAGE of eluted proteins; assay type: binding, Balb/C mice; conditions: serum of BSA-immunized mice, about 2 hours incubation, about 5 micrometer particles
Experimental: Another feature is that a tagged particle of the present invention may specifically recognize proteins or other host components of interest and as desired. For example, tagged particles were made to recover or eliminate BSA antibodies from immunized animals. First, Balb/C mice were immunized with bovine serum albumin (BSA) protein for four weeks to trigger BSA antibody production. Two weeks later, mice were sacrificed and their serum was recovered for analyses. […] After incubation for at least about 2 hours, particles were recovered by centrifugation. From a portion of each sample of recovered particles, proteins were eluted. Particles and eluted proteins were analyzed by SDS-PAGE gel electrophoresis to identify proteins that had adsorbed to the particles.
In FIG. 6, lane 1 is diluted mouse sera in PBS at concentration of 1 mg/mL; lanes 2, 5 and 7 depict proteins eluted from NIPA microparticles preincubated with antisera from three different mice; lanes 3, 4 and 6 depict proteins eluted from NIPA-BSA microparticles preincubated with antisera from three different mice. Lanes 2 and 3 are samples from a first mouse, lanes 4 and 5 are samples from a second mouse, and lanes 6 and 7 are samples from a third mouse.
In another example depicting the specific recognition of tagged particles, a similar immunization strategy was used. […] Eluted proteins were analyzed using SDS-PAGE gel electrophoresis. […]

Substance	time to removal of circulating BSA antibodies from serum [2]	particles still present in the blood after two weeks [3]	effect on free and circulating BSA antibody in serum [2]	other results
NP-Collagen: NIPA particles (approximately 100 nanometers) conjugated with bovine Type I collagen	–	–	–	reduction of collagen antibody concentration [1]: greater than 75%
PLLA-BSA: PLLA microparticles (approximately 10 micrometer) tagged with BSA	less than a week	–	–	–
BSA-HPC: HPC particles (approximately 5.0 micrometers) conjugated to BSA	–	greater than 20%	–	–
BSA-NIPA: FITC-BSA conjugated to NIPA particles of about 5.0 micrometers typical diameter	less than a week	greater than 20%	virtually complete by day 2	time remained in the circulation ([3]; FIG. 5A): at least 2 weeks; proteins adsorbed to or recognized by particles ([4]; listed as BSA-NIPA microparticles): recognized a number of proteins, especially those representing immunoglobulin G; proteins adsorbed to or recognized by particles ([4]; listed as NIPA-BSA microparticles): recognized more proteins; free BSA antibodies in the serum ([2]; tail vein injection at 6 weeks, about 5 micrometer particles, FIG. 8A): < 5%
HA-BSA: HA nanoparticles (approximately 250 nanometers) tagged with BSA	less than a week	–	–	–
bovine serum albumin [BSA, reference compound]	–	–	did little to effect; also recorded: none of the untagged particles (HA, NIPA, PLLA) or BSA alone (BSA) when injected into a host were able to significantly effect	–
